Measured values as given in patent publication US8063221B2, “Aminoquinolones as GSK-3 inhibitors” (Kyorin Pharmaceutical Co., Ltd., priority 2006, dated 2011).
≈ marks a conversion by molar mass, not a printed value. Where two headings read alike, the source gives them in different places.

What was measured:
[1] = test system: E. coli, ATCC8739; experiment: Antibacterial activity (MIC), E. coli; assay type: cell-based; conditions: Escherichia coli
Description: (§1) As used herein, a minimum inhibitory concentration (MIC) for bacterial growth assay is the lowest level of a compound needed to cause an inhibition to bacterial growth in culture medium. In certain embodiments, the antibacterial activity of compounds herein, measured as MIC.
(§2) In certain embodiments, GSK3 inhibitors provided herein are substantially free of antibacterial activity or having very low antibacterial activity. The antibacterial activity can be measured by methods known in the art by estimating a minimum inhibitory concentration (MIC) for test compounds. A MIC is the lowest level of a compound needed to cause an inhibition to bacterial growth in a culture medium. […] (Clinical and Laboratory Standards Institute. Methods for Dilution Antimicrobial Susceptibility Tests for Bacteria That Grow Aerobically; Approved Standard-Sixth Edition: CLSI document […]. CLSI, Wayne, Pa. (2003))
(§3) Antibacterial activity for E. coli, ATCC8739 andS. aureus Smith expressed as MIC (μM) is provided as follows: […]

[2] = test system: S. aureus Smith; experiment: Antibacterial activity (MIC), S. aureus; assay type: cell-based; conditions: Staphylococcus aureus
Description: as §1, §2, §3

[3] = target: T1, recombinant full-length human GSK3β (Homo sapiens, UniProt P49841); experiment: Luciferase-coupled cell-free GSK3β kinase assay; assay type: biochemical
T1 construct: recombinant full-length human GSK3β (Upstate); purchased Upstate
Protocol: For compounds in Tables 1 and 2, IC50 (μM) for GSK3β enzyme in cell free assay is provided as follows:
Luciferase-Coupled Protein Kinase Assays
All coupled-luciferase assays are performed by using a brief incubation with firefly luciferase (Promega) after completion of the kinase assay. KinaseGlo Plus is used for reading kinase reactions with ATP>10 μM, KinaseGlo for ATP <10 μM. The assay volume in a 384-well plate for the kinase reaction is 30 microliters.
10-25 ng of recombinant full-length human GSK3β (Upstate) is incubated in the presence or absence of compound at varying concentrations for 1 hour at 30 degrees Celsius in 20 mM MOPS, pH 7.0, 10 mM magnesium acetate, 0.2 mM EDTA, 2 mM EGTA, 30 mM magnesium chloride, 62.5 μM phospho-glycogen synthase peptide-2, 5 μM ATP, 10 mM β-glycerol phosphate, 1 mM sodium orthovanadate and 1 mM dithiothreitol. Proceed to KinaseGlo luciferase reaction (see below).
Following the completion of the kinase reaction an equal volume of KinaseGlo or KinaseGlo Plus luciferase reagent (Promega) is added and the luminescence read using a luminescence plate reader within 5-10 minutes. Compound activity is expressed as % inhibition relative to maximal inhibition observed at the maximal dose and IC50 values then calculated using curve fitting software (GraphPad Prizm).

[4] = ATCC8739, Table 1, E. coli ATCC8739, read-out: Antibacterial MIC (μM) E.Coli
[5] = Table 1, read-out: Antibacterial MIC (μM) S. aureus Smith
[6] = ATCC8739, Table 2, E. coli ATCC8739, read-out: Antimicrobial MIC [μM] E. Coli
[7] = Table 2, S. aureus Smith, read-out: Antimicrobial MIC [μM] S. aureus

T1 sequence (P49841 whole entry): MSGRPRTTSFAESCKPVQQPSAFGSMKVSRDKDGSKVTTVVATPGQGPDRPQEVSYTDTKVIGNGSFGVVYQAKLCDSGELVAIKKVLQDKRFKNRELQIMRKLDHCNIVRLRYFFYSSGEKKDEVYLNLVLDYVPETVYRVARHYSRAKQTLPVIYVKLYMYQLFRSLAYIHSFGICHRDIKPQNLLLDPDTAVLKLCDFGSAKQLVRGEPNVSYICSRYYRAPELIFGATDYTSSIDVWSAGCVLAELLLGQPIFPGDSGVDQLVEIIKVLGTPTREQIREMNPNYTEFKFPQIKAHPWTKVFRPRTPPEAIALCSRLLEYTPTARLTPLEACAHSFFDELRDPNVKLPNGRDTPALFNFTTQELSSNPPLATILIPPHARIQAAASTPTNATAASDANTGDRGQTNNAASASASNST

Compound	MIC [1, 4] [µM]	MIC [2, 5] [µM]	IC50 ([3]; Table 1) [nM]	MIC [1, 6] [µM]	MIC [2, 7] [µM]	IC50 ([3]; Table 2) [nM]	MIC ([1]; ATCC8739, read-out: Antibacterial MIC (μM) E.Coli) [µM]	MIC ([2]; read-out: Antibacterial MIC (μM) S. aureus Smith) [µM]
Nc1c(F)c(NCCCn2ccnc2)c(F)c2c1c(=O)c(C(=O)O)cn2C1CC1 [compound 23]	0.5 to 10 (≈ 0.202 to 4.03 µg/mL)	0.5 to 10 (≈ 0.202 to 4.03 µg/mL)	< 100	–	–	–	–	–
Nc1c(F)c(NCCc2ccccc2)c(F)c2c1c(=O)c(C(=O)O)cn2C1CC1 [compound 1]	0.5 to 10 (≈ 0.2 to 3.99 µg/mL)	< 0.5	100 to 500	–	–	–	–	–
CC(C)[C@H]1COc2c(NCCNc3ccccn3)c(F)c(N)c3c(=O)c(C(=O)O)cn1c23 [compound 60]	–	–	–	10 to 50 (≈ 4.41 to 22.1 µg/mL)	10 to 50 (≈ 4.41 to 22.1 µg/mL)	< 100	–	–
Nc1c(F)c(NCCCn2ccnc2)c2c3c1c(=O)c(C(=O)O)cn3CCO2 [compound 9]	–	–	–	10 to 50 (≈ 3.87 to 19.4 µg/mL)	> 50	500 to 1000	–	–
CC(C)(C)OC(=O)NCCNc1c(F)c(N)c2c(=O)c(C(=O)O)cn(C3CC3)c2c1F [compound 21]	0.5 to 10 (≈ 0.219 to 4.38 µg/mL)	0.5 to 10 (≈ 0.219 to 4.38 µg/mL)	500 to 1000	–	–	–	–	–
CC(C)C[C@H]1COc2c(NCCCc3ccccc3)c(F)c(N)c3c(=O)c(C(=O)O)cn1c23 [compound 50]	–	–	–	10 to 50 (≈ 4.54 to 22.7 µg/mL)	10 to 50 (≈ 4.54 to 22.7 µg/mL)	< 100	–	–
COc1c(NCCNc2ccc(C(=O)O)cn2)c(F)c(N)c2c(=O)c(C(=O)O)cn(C3CC3)c12 [Example 138]	–	–	–	> 50	> 50	< 100	–	–
CSc1c(F)c(NCCNc2ccccn2)c(F)c2c1c(=O)c(C(=O)O)cn2C1CC1 [Example 128]	–	–	–	0.5 to 10 (≈ 0.223 to 4.46 µg/mL)	0.5 to 10 (≈ 0.223 to 4.46 µg/mL)	–	–	–
CC1(C)COc2c(NCCCc3ccccc3)c(F)c(N)c3c(=O)c(C(=O)O)cn(c23)C1 [compound 25]	–	–	–	0.5 to 10 (≈ 0.22 to 4.39 µg/mL)	0.5 to 10 (≈ 0.22 to 4.39 µg/mL)	< 100	–	–
Nc1c(F)c(NCCNc2cccc3ccccc23)c(F)c2c1c(=O)c(C(=O)O)cn2C1CCCC1 [compound 56]	10 to 50 (≈ 4.93 to 24.6 µg/mL)	10 to 50 (≈ 4.93 to 24.6 µg/mL)	< 100	–	–	–	–	–
COc1c(NCCCn2cnc3ccccc32)c(F)c(N)c2c(=O)c(C(=O)O)cn(C3CC3)c12 [compound 83]	–	–	< 100	–	–	–	10 to 50 (≈ 4.65 to 23.3 µg/mL)	0.5 to 10 (≈ 0.233 to 4.65 µg/mL)
COc1c(NCCNc2ccccn2)c(F)c(N)c2c(=O)c(C(=O)O)cn(C3CCCC3)c12 [compound 77]	10 to 50 (≈ 4.55 to 22.8 µg/mL)	0.5 to 10 (≈ 0.228 to 4.55 µg/mL)	> 1000	–	–	–	–	–
CC1COc2c(NCCNc3cccc(F)n3)c(F)c(N)c3c(=O)c(C(=O)O)cn1c23 (centres unmarked) [compound 14]	–	–	–	10 to 50 (≈ 4.31 to 21.6 µg/mL)	0.5 to 10 (≈ 0.216 to 4.31 µg/mL)	< 100	–	–
CC(C)[C@@H]1COc2c(NCCCn3ccnc3)c(F)c(N)c3c(=O)c(C(=O)O)cn1c23 [compound 63]	–	–	–	> 50	10 to 50 (≈ 4.29 to 21.5 µg/mL)	< 100	–	–
C[C@@H]1COc2c(NCCCn3cnc4ccccc43)c(F)c(N)c3c(=O)c(C(=O)O)cn1c23 [compound 32]	–	–	–	10 to 50 (≈ 4.51 to 22.6 µg/mL)	10 to 50 (≈ 4.51 to 22.6 µg/mL)	100 to 500	–	–
COc1c(NCCNc2ccc(C(=O)O)cn2)c(F)c(N)c2c(=O)ccn(C3CC3)c12 [Example 137]	–	–	–	> 50	> 50	< 100	–	–
C[C@H]1COc2c(NCCCn3cnc4ccccc43)c(F)c(N)c3c(=O)c(C(=O)O)cn1c23 [compound 19]	–	–	–	10 to 50 (≈ 4.51 to 22.6 µg/mL)	0.5 to 10 (≈ 0.226 to 4.51 µg/mL)	< 100	–	–
Nc1c(F)c(NCCCc2ccccc2)c2c3c1c(=O)c(C(=O)O)cn3CCO2 [compound 8]	–	–	–	10 to 50 (≈ 3.97 to 19.9 µg/mL)	10 to 50 (≈ 3.97 to 19.9 µg/mL)	> 1000	–	–
Nc1c(F)c(NCCNc2ccccn2)c2c3c1c(=O)c(C(=O)O)cn3[C@@H](Cc1ccccc1)CO2 [Example 120]	–	–	–	10 to 50 (≈ 4.9 to 24.5 µg/mL)	10 to 50 (≈ 4.9 to 24.5 µg/mL)	100 to 500	–	–
CC(C)[C@@H]1COc2c(NCCCc3ccccc3)c(F)c(N)c3c(=O)c(C(=O)O)cn1c23 [compound 64]	–	–	–	0.5 to 10 (≈ 0.22 to 4.39 µg/mL)	0.5 to 10 (≈ 0.22 to 4.39 µg/mL)	< 100	–	–
CC1(C)COc2c(NCCc3ccncc3)c(F)c(N)c3c(=O)c(C(=O)O)cn1c23 [compound 39]	–	–	–	> 50	10 to 50 (≈ 4.12 to 20.6 µg/mL)	100 to 500	–	–
CC(C)OCCCNc1c(F)c(N)c2c(=O)c(C(=O)O)cn(CCc3ccccc3)c2c1F [compound 50]	0.5 to 10 (≈ 0.23 to 4.59 µg/mL)	0.5 to 10 (≈ 0.23 to 4.59 µg/mL)	500 to 1000	–	–	–	–	–
COc1c(NCCCc2ccccc2)c(F)c(N)c2c(=O)c(C(=O)O)cn(C3CC3)c12 [compound 67]	10 to 50 (≈ 4.25 to 21.3 µg/mL)	0.5 to 10 (≈ 0.213 to 4.25 µg/mL)	< 100	–	–	–	–	–
Nc1c(F)c(NCCNc2ccccn2)cc2c1c(=O)c(C(=O)O)cn2C1CC1 [Example 133]	–	–	–	0.5 to 10 (≈ 0.199 to 3.97 µg/mL)	< 0.5	< 100	–	–
CC(C)C[C@H]1COc2c(NCCNc3ccccn3)c(F)c(N)c3c(=O)c(C(=O)O)cn1c23 [compound 51]	–	–	–	10 to 50 (≈ 4.55 to 22.8 µg/mL)	10 to 50 (≈ 4.55 to 22.8 µg/mL)	< 100	–	–
